Assay results taken from US11058678B2 (Enanta Pharmaceuticals, Inc., priority 2018, dated 2021).

The molecules below were run on HBV (2.2.15 cells) (assay: Antiviral activity in 2.2.15 cells: reduction of viral product accumulation (qPCR of lysates, HBsAg or HBeAg ELISA)). Conditions: Hepatitis B virus, 120 h, day 5 post treatment, 50% reduction of viral product accumulation in lysates or supernatants vs no drug controls, readout (qPCR, HBsAg, HBeAg) not specified.
Format: cell-based, hepatitis B virus (HBV)
Experimental: 2.2.15 cells are passaged upon attaining confluency in DMEM/F12 media in the presence of 10% FBS, Penn/Strep, and 250 ug/mL G418. Novel compounds are 5 fold serially diluted in DMSO and added to 96 well plates containing 35,000 cells/well at a 1:200 dilution so that the final concentration of DMSO is 0.5%. On day 5, post treatment cell lysates and supernatants are harvested for analysis.
Cells are lysed using Agilent Sidestep Lysis buffer, diluted 1:100 and quantified via quantitative real time PCR. Commercially available ELISA kits are used to quantitate the viral proteins HBsAg (Alpco) or HBeAg (US Biological) by following the manufacturer's recommended protocol after diluting samples to match the linear range of their respective assays. Irrespective of readout, compound concentrations that reduce viral product accumulation in the cell lysates or supernatants by 50% relative to no drug controls (EC50) are reported; EC50 ranges are as follows: A<0.1 μM; B 0.1-1 μM; C>1 μM.

SMILES | EC50
COCCCOc1cc2c(cc1-c1nnc(C(F)(F)F)o1)-c1cc(=O)c(C(=O)O)cn1[C@H](C(C)(C)C)C2 [Example 53, (S)-6-(tert-butyl)-9-(3-methoxypropoxy)-2-oxo-10-(5-(trifluoromethyl)-1,3,4-oxadiazol-2-yl)-6,7-dihydro-2H-pyrido[2,1-a]isoquinoline-3-carboxylic Acid] | < 100 nM
COCCCOc1cc2c(cc1N1CCC(F)(F)C1)-c1cc(=O)c(C(=O)O)cn1[C@H](C(C)(C)C)C2 [Example 54, (S)-6-(tert-butyl)-10-(3,3-difluoropyrrolidin-1-yl)-9-(3-methoxypropoxy)-2-oxo-6,7-dihydro-2H-pyrido[2,1-a]isoquinoline-3-carboxylic Acid] | 100 to 1000 nM
COCCCOc1cc2c(cc1N1CCC1)-c1cc(=O)c(C(=O)O)cn1[C@H](C(C)(C)C)C2 [Example 55, (S)-10-(azetidin-1-yl)-6-(tert-butyl)-9-(3-methoxypropoxy)-2-oxo-6,7-dihydro-2H-pyrido[2,1-a]isoquinoline-3-carboxylic Acid] | < 100 nM
COCCCOc1cc2c(cc1-c1ccc(OC(F)F)cc1)-c1cc(=O)c(C(=O)O)cn1[C@H](C(C)(C)C)C2 [Example 56, (S)-6-(tert-butyl)-10-(4-(difluoromethoxy)phenyl)-9-(3-methoxypropoxy)-2-oxo-6,7-dihydro-2H-pyrido[2,1-a]isoquinoline-3-carboxylic Acid] | < 100 nM
COCCCOc1cc2c(cc1-c1cccc(OC(F)(F)F)c1)-c1cc(=O)c(C(=O)O)cn1[C@H](C(C)(C)C)C2 [Example 57, (S)-6-(tert-butyl)-9-(3-methoxypropoxy)-2-oxo-10-(3-(trifluoromethoxy)phenyl)-6,7-dihydro-2H-pyrido[2,1-a]isoquinoline-3-carboxylic Acid] | > 1000 nM
COCCCOc1cc2c(cc1-c1ccccc1OC(F)(F)F)-c1cc(=O)c(C(=O)O)cn1[C@H](C(C)(C)C)C2 [Example 58, (S)-6-(tert-butyl)-9-(3-methoxypropoxy)-2-oxo-10-(2-(trifluoromethoxy)phenyl)-6,7-dihydro-2H-pyrido[2,1-a]isoquinoline-3-carboxylic Acid] | > 1000 nM
Cn1nccc1-c1cc2c(c3c1OCC3)C[C@@H](C(C)(C)C)n1cc(C(=O)O)c(=O)cc1-2 [Example 68, (S)-5-(tert-butyl)-12-(1-methyl-1H-pyrazol-5-yl)-9-oxo-2,3,4,9-tetrahydro-5H-furo[3,2-f]pyrido[2,1-a]isoquinoline-8-carboxylic Acid] | < 100 nM
Cn1cc(-c2cc3c(c4c2OCC4)C[C@@H](C(C)(C)C)n2cc(C(=O)O)c(=O)cc2-3)cn1 [Example 69, (S)-5-(tert-butyl)-12-(1-methyl-1H-pyrazol-4-yl)-9-oxo-2,3,4,9-tetrahydro-5H-furo[3,2-f]pyrido[2,1-a]isoquinoline-8-carboxylic Acid] | < 100 nM
Cn1ccc(-c2cc3c(c4c2OCC4)C[C@@H](C(C)(C)C)n2cc(C(=O)O)c(=O)cc2-3)n1 [Example 70, (S)-5-(tert-butyl)-12-(1-methyl-1H-pyrazol-3-yl)-9-oxo-2,3,4,9-tetrahydro-5H-furo[3,2-f]pyrido[2,1-a]isoquinoline-8-carboxylic Acid] | < 100 nM
CC(C)(C)[C@@H]1Cc2c(cc(-c3ccco3)c3c2CCO3)-c2cc(=O)c(C(=O)O)cn21 [Example 72, (S)-5-(tert-butyl)-12-(furan-2-yl)-9-oxo-2,3,4,9-tetrahydro-5H-furo[3,2-f]pyrido[2,1-a]isoquinoline-8-carboxylic Acid] | < 100 nM
CC(C)(C)[C@@H]1Cc2c(cc(-c3cnsc3)c3c2CCO3)-c2cc(=O)c(C(=O)O)cn21 [Example 73, (S)-5-(tert-butyl)-12-(isothiazol-4-yl)-9-oxo-2,3,4,9-tetrahydro-5H-furo[3,2-f]pyrido[2,1-a]isoquinoline-8-carboxylic Acid] | < 100 nM
CC(C)(C)[C@@H]1Cc2c(cc(-c3ccncc3)c3c2CCO3)-c2cc(=O)c(C(=O)O)cn21 [Example 74, (S)-5-(tert-butyl)-9-oxo-12-(pyridin-4-yl)-2,3,4,9-tetrahydro-5H-furo[3,2-f]pyrido[2,1-a]isoquinoline-8-carboxylic Acid] | < 100 nM
CC(C)(C)[C@@H]1Cc2c(cc(-c3cccnc3)c3c2CCO3)-c2cc(=O)c(C(=O)O)cn21 [Example 75, (S)-5-(tert-butyl)-9-oxo-12-(pyridin-3-yl)-2,3,4,9-tetrahydro-5H-furo[3,2-f]pyrido[2,1-a]isoquinoline-8-carboxylic Acid] | < 100 nM
CC(C)(C)[C@@H]1Cc2c(cc(-c3ccccc3Cl)c3c2CCO3)-c2cc(=O)c(C(=O)O)cn21 [Example 76, (S)-5-(tert-butyl)-12-(2-chlorophenyl)-9-oxo-2,3,4,9-tetrahydro-5H-furo[3,2-f]pyrido[2,1-a]isoquinoline-8-carboxylic Acid] | < 100 nM
COc1ccc(-c2cc3c(c4c2OCC4)C[C@@H](C(C)(C)C)n2cc(C(=O)O)c(=O)cc2-3)cc1 [Example 78, (S)-5-(tert-butyl)-12-(4-methoxyphenyl)-9-oxo-2,3,4,9-tetrahydro-5H-furo[3,2-f]pyrido[2,1-a]isoquinoline-8-carboxylic Acid] | < 100 nM
CC(C)(C)[C@@H]1Cc2c(cc(-c3ccc(C(F)(F)F)cc3)c3c2CCO3)-c2cc(=O)c(C(=O)O)cn21 [Example 80, (S)-5-(tert-butyl)-9-oxo-12-(4-(trifluoromethyl)phenyl)-2,3,4,9-tetrahydro-5H-furo[3,2-f]pyrido[2,1-a]isoquinoline-8-carboxylic Acid] | > 1000 nM
CC(C)(C)[C@@H]1Cc2c(cc(-c3cccc(C(F)(F)F)c3)c3c2CCO3)-c2cc(=O)c(C(=O)O)cn21 [Example 81, (S)-5-(tert-butyl)-9-oxo-12-(3-(trifluoromethyl)phenyl)-2,3,4,9-tetrahydro-5H-furo[3,2-f]pyrido[2,1-a]isoquinoline-8-carboxylic Acid] | > 1000 nM
CC(C)(C)[C@@H]1Cc2c(cc(-c3ccn[nH]3)c3c2CCO3)-c2cc(=O)c(C(=O)O)cn21 [Example 82, (S)-5-(tert-butyl)-9-oxo-12-(1H-pyrazol-5-yl)-2,3,4,9-tetrahydro-5H-furo[3,2-f]pyrido[2,1-a]isoquinoline-8-carboxylic Acid] | < 100 nM
CC(C)(C)[C@@H]1Cc2c(cc(-c3cnco3)c3c2CCO3)-c2cc(=O)c(C(=O)O)cn21 [Example 83, (S)-5-(tert-butyl)-12-(oxazol-5-yl)-9-oxo-2,3,4,9-tetrahydro-5H-furo[3,2-f]pyrido[2,1-a]isoquinoline-8-carboxylic Acid] | < 100 nM
CC(C)(C)[C@@H]1Cc2c(cc(-c3ccc(Cl)cc3)c3c2CCO3)-c2cc(=O)c(C(=O)O)cn21 [Example 84, (S)-5-(tert-butyl)-12-(4-chlorophenyl)-9-oxo-2,3,4,9-tetrahydro-5H-furo[3,2-f]pyrido[2,1-a]isoquinoline-8-carboxylic Acid] | > 1000 nM
CC(C)(C)[C@@H]1Cc2c(cc(-c3cccc(Cl)c3)c3c2CCO3)-c2cc(=O)c(C(=O)O)cn21 [Example 85, (S)-5-(tert-butyl)-12-(3-chlorophenyl)-9-oxo-2,3,4,9-tetrahydro-5H-furo[3,2-f]pyrido[2,1-a]isoquinoline-8-carboxylic Acid] | < 100 nM
